Reference: patent US7056536B2, “Non-corrosive sterilant composition” (Ecolab Inc., priority 1998, dated 2006)

Test system: Bacillus cereus spores
Assay: Rate of Kill Antimicrobial Efficacy (SOP CB021-04), Formulas 1-8 with octanoic/peroctanoic acid, 40° C.
Format: cell-based
Conditions: on a weight basis
Experimental: Ecolab Microbiological Services SOP CB021-04; Rate of Kill Antimicrobial Efficacy. Following exposure to the formula and subsequent neutralization, spores were heat shocked for 13 minutes at 80° C. before plating. [table]

## CCCCCCCC(=O)OO [peroctanoic acid, peroxyoctanoic acid]
  effect on the sporicidal efficacy of 150 ppm POAA against B. cereus, compared with octanoic acid: greater effect
